From patent US9012457B2, “2-carboxamide-4-piperazinyl-benzofuran derivative” (AstraZeneca AB, priority 2010, dated 2015)

Columns and labels:
5-HT1B receptor [1] = molecular target: T1, 5-HT1B receptor (Homo sapiens, UniProt P28222); experiment: saturation binding studies, 5-HT1B receptor; conditions: read-out: Kd of radioligand (used in calculation of Ki values)
Protocol: Frozen membrane preparations were thawed, homogenized with an Ultra-Turrax and mixed with SPA beads (YSI coated WGA, GE Healthcare/Amersham, Buckinghamshire, UK) in assay buffer containing 50 mM Tris-Base, 4 mM MgCl2, 4 mM CaCl2 (only 5-HT1B), 1 mM EDTA, and adjusted to pH 7.4 with HCl. The beads/membrane solution, final concentration 100 pM receptors for 5-HT1A, 300 pM receptors for 5-HT1B and 0.5 mg SPA beads/well, was pre-incubated in room temperature with stirring for 30-60 min. […] Five (log interval, 10 μM to 1 nM, final concentration) or ten serial dilutions (½-log interval, 0.1 μM to 0.0032 nM, final concentration) of compounds were prepared in DMSO from 10 mM stock solutions. The binding assays were performed in 384-well plates in a final volume of 90 μL/well with the following additions: 9 μL binding buffer; 1 μL compound/DMSO/nonspecific; 20 μL radioligand; and 60 μL beads/membrane mixture. Non-specific binding was defined by using 10 μM WAY100635 for 5-HT1A and 10 μM Methiothepin for 5-HT1B. The assay plates were incubated for 4 hours where after the plates are counted in a Wallac 1450 Microbeta Trilux counter (PerkinElmer LifeScience, US) or similar. Data from the experiments were analyzed using a four parameter logistic equation as follows: Y=Bottom+(Top−Bottom)/1+10^(Log EC50-X)nH.

5-HT1B receptor [2] = molecular target: T1, 5-HT1B receptor; experiment: 5-HT1B receptor competition binding assay (SPA, [3H]-GR125743)
Protocol: (§1) These assays were be used with some modifications:
(§2) For the binding assay stably transfected chinese hamster ovary (CHO) cell lines expressing 5-HT1A receptors or 5-HT1B receptors were harvested by centrifugation at 300×g for 10 min and resuspended in 10 mM Tris-HCl, 5 mM EDTA at pH 7.4. The cells were pooled, recentrifuged and resuspended before homogenisation using a Dounce homogeniser (“type B”). Cell membranes were centrifuged at 48 000×g for 10 min and then resuspended in harvesting buffer using an Ultra-Turrax T8 (IKA Labortechnik, Germany), aliquots were stored frozen in −70° C.
(§3) Frozen membrane preparations were thawed, homogenized with an Ultra-Turrax and mixed with SPA beads (YSI coated WGA, GE Healthcare/Amersham, Buckinghamshire, UK) in assay buffer containing 50 mM Tris-Base, 4 mM MgCl2, 4 mM CaCl2 (only 5-HT1B), 1 mM EDTA, and adjusted to pH 7.4 with HCl. The beads/membrane solution, final concentration 100 pM receptors for 5-HT1A, 300 pM receptors for 5-HT1B and 0.5 mg SPA beads/well, was pre-incubated in room temperature with stirring for 30-60 min. […] The assay plates were incubated for 4 hours where after the plates are counted in a Wallac 1450 Microbeta Trilux counter (PerkinElmer LifeScience, US) or similar. Data from the experiments were analyzed using a four parameter logistic equation as follows: Y=Bottom+(Top−Bottom)/1+10^(Log EC50-X)nH.

5-HT1A receptors = molecular target: T2, 5-HT1A receptors (Homo sapiens, UniProt P08908); experiment: 5-HT1A receptor competition binding assay (SPA, [3H]-8-OH-DPAT)
T2 sequence (P08908 1-422): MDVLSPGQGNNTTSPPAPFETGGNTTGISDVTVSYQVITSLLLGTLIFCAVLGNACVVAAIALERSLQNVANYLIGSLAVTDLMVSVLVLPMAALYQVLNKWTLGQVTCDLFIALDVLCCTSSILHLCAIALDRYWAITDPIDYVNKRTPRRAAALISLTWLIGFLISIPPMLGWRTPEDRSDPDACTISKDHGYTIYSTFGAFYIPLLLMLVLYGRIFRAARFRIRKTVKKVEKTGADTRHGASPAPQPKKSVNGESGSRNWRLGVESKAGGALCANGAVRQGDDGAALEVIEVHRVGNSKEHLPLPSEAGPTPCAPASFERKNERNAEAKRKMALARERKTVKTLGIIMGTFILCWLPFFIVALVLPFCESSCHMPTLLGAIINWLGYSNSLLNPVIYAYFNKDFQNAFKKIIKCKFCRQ
Protocol: as §1, §2, §3

T1 sequence (P28222 whole entry): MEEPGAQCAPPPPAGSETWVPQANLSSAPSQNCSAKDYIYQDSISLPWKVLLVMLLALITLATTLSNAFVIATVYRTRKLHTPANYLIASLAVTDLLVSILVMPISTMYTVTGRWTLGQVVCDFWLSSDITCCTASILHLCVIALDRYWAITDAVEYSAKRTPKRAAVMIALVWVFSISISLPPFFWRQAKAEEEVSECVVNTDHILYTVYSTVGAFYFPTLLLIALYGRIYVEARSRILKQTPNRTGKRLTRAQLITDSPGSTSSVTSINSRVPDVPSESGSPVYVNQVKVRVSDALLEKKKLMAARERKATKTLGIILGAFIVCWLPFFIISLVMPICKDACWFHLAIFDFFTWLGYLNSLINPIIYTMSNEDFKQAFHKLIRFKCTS

Row | Kd (5-HT1B receptor [1]) [nM] | Ki (5-HT1B receptor [2]) [nM] | Ki (5-HT1A receptors) [nM] | SMILES
1 | 0.87 | – | – | COc1ccc(NC(=O)c2ccc(-c3ccncc3)c(C)c2)cc1N1CCN(C)CC1 [[^3H]-GR125743]
2 | – | 0.65 | 0.07 | CNC(=O)c1cc2c(N3CCN(CCc4cccc5c4CCC(=O)N5C)CC3)cccc2o1 [compound of formula (I), N-Methyl-4-[4-[2-(1-methyl-2-oxo-3,4-dihydroquinolin-5-yl)ethyl]piperazin-1-yl]benzofuran-2-carboxamide]
